Paper PMC12015262 (Nature Communications, 2025)
Read-outs that look alike come from different tables or passages of the source. One block for each compound: values may come before it. Where a SMILES comes first, the peptide text is derived from it. Bridges are numbered along the chain shown (N, C = ends).

Columns and labels:
[1] = Pharmacokinetic study, intravenous, male CD-1 mice; type: in vivo
wild-type ETB = conditions: previous study; cited from earlier work
[2] = molecular target: T1, recombinant human ETB receptor (Homo sapiens, UniProt P24530); type: binding; conditions: Discussion
T1 sequence (P24530 27-442): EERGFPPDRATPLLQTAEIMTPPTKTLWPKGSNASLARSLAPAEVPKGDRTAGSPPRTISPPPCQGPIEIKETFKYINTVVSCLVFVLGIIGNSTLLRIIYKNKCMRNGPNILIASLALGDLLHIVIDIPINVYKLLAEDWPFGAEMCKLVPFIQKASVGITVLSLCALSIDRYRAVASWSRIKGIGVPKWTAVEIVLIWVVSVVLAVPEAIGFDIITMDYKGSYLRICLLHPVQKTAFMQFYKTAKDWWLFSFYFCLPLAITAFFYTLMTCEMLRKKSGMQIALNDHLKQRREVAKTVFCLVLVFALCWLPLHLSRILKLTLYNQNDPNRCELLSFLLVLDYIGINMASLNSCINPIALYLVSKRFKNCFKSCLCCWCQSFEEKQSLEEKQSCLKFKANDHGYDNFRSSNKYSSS

[3] = human, s9
[4] = mouse, s9
human recombinant ETAR = molecular target: T2, human recombinant ETAR (Homo sapiens, UniProt P25101); conditions: competition binding
T2 sequence (P25101 21-427): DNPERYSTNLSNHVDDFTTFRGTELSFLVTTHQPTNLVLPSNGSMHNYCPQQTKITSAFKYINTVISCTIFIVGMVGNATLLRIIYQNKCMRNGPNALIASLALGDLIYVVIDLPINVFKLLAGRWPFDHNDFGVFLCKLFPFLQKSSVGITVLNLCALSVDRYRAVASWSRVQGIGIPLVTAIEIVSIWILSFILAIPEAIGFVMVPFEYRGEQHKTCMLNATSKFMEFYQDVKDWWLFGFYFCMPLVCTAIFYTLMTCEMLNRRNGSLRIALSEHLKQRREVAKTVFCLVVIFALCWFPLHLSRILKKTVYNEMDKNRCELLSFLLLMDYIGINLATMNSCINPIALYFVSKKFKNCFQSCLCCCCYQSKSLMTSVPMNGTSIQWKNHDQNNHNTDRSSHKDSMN

[5] = molecular target: human endothelin type B receptor (ETB), in membranes of CHO cells (human) (UniProt P24530); test: radioligand binding

half-life compared with RES-701-3 ([1]; same experiment, IV, mice): nearly tenfold lower half-life
Compound: CCCC[C@@H](NC(=O)[C@@H](Cc1cn(C(=O)OC)c2ccccc12)NC(=O)[C@H](CC(C)(C)C)NC(=O)N1[C@H](C)CCC[C@@H]1C)C(=O)O [BQ-788, Dmpc-γ-MeLeul-D-Trp(1-CO2CH3)-D-Nle-OH, reference compound]

Compound: COc1ccccc1Oc1c(NS(=O)(=O)c2ccc(C(C)(C)C)cc2)nc(-c2ncccn2)nc1OCCO [Bosentan]
effect on receptor activation level of wild-type ETB (wild-type ETB): does not change the receptor activation level

selectivity for ETB (ETB/ETA) [2]: 50 ×
Compound: Cc1cc(C)cc(C(=O)N(C)[C@H](Cc2ccc(-c3ccccc3)cc2)C(=O)N[C@@H](Cc2c[nH]c3ccccc23)C(=O)O)c1 [IRL2500]

Compound: C[C@@H](O)[C@@H]1NC(=O)CNC(=O)[C@H](Cc2c[nH]cn2)NC(=O)[C@H](Cc2c[nH]c3ccccc23)NC(=O)[C@H](CC(N)=O)NC(=O)CNC(=O)C[C@@H](C(=O)N[C@@H](Cc2c[nH]c3ccccc23)C(=O)N[C@@H](Cc2ccccc2)C(=O)N[C@@H](Cc2ccccc2)C(=O)N[C@@H](CC(N)=O)C(=O)N[C@@H](Cc2ccc(O)cc2)C(=O)N[C@@H](Cc2ccc(O)cc2)C(=O)N[C@@H](Cc2c[nH]c3ccccc23)C(=O)O)NC(=O)[C@@H]2CCCN2C(=O)[C@H](CO)NC1=O [RES-701-3] (GNWHGTSPDWFFNYYW-OH; lactam N-9 (inferred))
half-life [3]: > 6 h
half-life ([1]; mouse, in vivo, iv, 3 mg/kg, t1/2, 3 mg/kg IV, male CD-1 mice): > 6 h
half-life [4]: > 6 h
activity against ETA (human recombinant ETAR): no activity

Compound: RES-701-3 T6E (peptide)
fold reduction of affinity against RES-701-3 [5]: 50 fold
